The structures appear in SMILES notation.

The record followed here is a melting point compilation (Tetko et al.; mined from patent text by program, amines drawn as free bases though some values may be those of a salt).

The term melting point denotes the temperature, or range, at which the solid turns liquid. Turning to `c1ccc(COc2ccc(-c3nc4cccc(OCc5ccccc5)c4[nH]3)cc2C23CC4CC(CC(C4)C2)C3)cc1`, the melting point lay within 109 to 111 °C.

`CC(=Cc1ccc(F)cc1F)C(=O)O` had a melting point of 126 to 128 °C.

Compound `CN1CCN(Cc2nnc3n2-c2ccc(Cl)cc2C(c2ccccc2)=NC3)CC1` gave a melting point of 203 to 206 °C.

In turn, `CN(C)c1ccc2c(c1)NC(=O)CC2` displayed a melting point of 154 to 156 °C.

For `C=CCn1cc(-c2ccccc2)c(=O)c(-c2cccc(C(F)(F)F)c2)c1`, the melting point lay within 107 to 109 °C.

Consider `COC(=O)C1C(=O)CC(=O)CC1C` (centres undefined), for which the melting point is 122 to 123 °C.

`O=C1NC(=O)c2c1c(-c1ccccc1Cl)cc1sc3ccc(O)cc3c21` showed a melting point of 311 to 313 °C.

For the compound `COc1cc2ncc(C#N)c(Nc3cccc(C#N)c3)c2cc1OC`, the melting point was in the range of 285 to 288 °C.

As for `CN(C)c1nc2c(c(=O)[nH]1)CC(S(=O)(=O)c1ccccc1)CC2` (centres undefined), the melting point was 249 °C.

`OCCCc1oc(-n2cccn2)nc1-c1ccc(Cl)cc1` displayed a melting point of 75 to 76 °C.

Take `CNC(=O)c1cc(Oc2ccc(NC(=O)Nc3ccc4c(cnn4C)c3)c(F)c2)ccn1`: the melting point was 231 to 234 °C.

`CCCCn1nc(C(N)=O)cc1C` had a melting point of 114 °C.

For `Cc1nc(CN2CCN(c3cccc(Br)c3)CC2)cs1`, the melting point is 82 °C.

The compound `O=C1N(CCCO)c2ccccc2C12COc1cc3c(cc12)OCCO3` (centres undefined) came in with a melting point of 157 to 158 °C.
